Measurements as given in US8455196B2, “Biomarker for identifying subgroup of early-stage lung adenocarcinoma patients” (priority 2011, dated 2013).

How the values were obtained:
PTEN = experiment: Immunoblot of PTEN in TOPK-transfected CL1-0 cells treated with inhibitor; format: cell-based, human; conditions: LY294002 10 μM
Protocol: CL1-0 (C, left), H1299 (C, right), and IMR90 (D) cells were transiently transfected with a vector control or pCMV2-Flag-TOPK (WT) or pCMV2-Flag-TOPK (KD) plasmid; twenty-two hours after transfection, a fraction of the cells was harvested for immunoblotting as indicated in (B); the migration and cell viability of TOPK-overexpressing IMR90 cells was also evaluated as described previously (D, right panel) (*P<0.05, **P<0.01, ***P<0.001);
To determine whether TOPK mediated AKT-dependent cell mortility by regulating the PTEN protein level, we first examined whether co-treating cells with LY294002, a PI3K inhibitor, could affect the TOPK-induced decrease in PTEN. […] Moreover, when PTEN was ectopically expressed, TOPK-induced phosphorylation of AKT-Ser^473 was blocked in a dose-dependent manner (FIG. 5A).

CL1-0 cells = experiment: Transwell migration of TOPK-overexpressing CL1-0 cells with pharmacological inhibitors; format: cell-based, human; conditions: CL1-0 cells transfected with pCMV2-Flag-TOPK; inhibitor 10 μM, 2 hrs
Protocol: All cell culture related reagents were purchased from Invitrogen. […] All cells were cultured in appropriate medium, e.g., RPMI 1640 for A549, CL1-0 and CL1-5; DMEM for IMR90, H1299 and H23. Each medium were supplemented with 10% fetal bovine serum, 2 mM of L-glutamine and 1% penicillin/streptomycin. Transfection of cells was done using lipofetamine (Invitrogen) according to the manufacturer's instructions. […] At 24 or 48 hr post-transfection, cells were harvested and subjected to a migration or proliferation assay and the protein level of TOPK was determined by western blotting as described previously (Chen et al 2009a). Pharmacological inhibitors used (LY294002, U0126, and SB203580) were from Cell Signaling.

CL152 cells = experiment: MTT cell viability after cisplatin in siRNA-transfected CL152 cells; format: cell-based; conditions: cisplatin 35 μM, 48 hr
Protocol: After 48 hr, MTT assays were performed to examine the cell viability (n=3, ** P<0.01).
(§1) Different lung cancer cell lines have been previously analyzed for the expression level of TOPK (data not shown). […] Recently, we have tested the knockdown effect of TOPK in promoting cisplatin-induced cytotoxicity in other lung cancer cells, such as CL152 and CL141 cells.

phospho-H2AX (γ-H2AX) = experiment: Immunoblot of cisplatin-induced H2AX phosphorylation; format: cell-based, human; conditions: cisplatin 35 μM; for cisplatin-induced γ-H2AX after TOPK shRNA: A549-Luc cells stably transfected with shRNA
Description: Cells were harvested for detecting the expression of phospho-H2AX (γ-H2AX), H2AX and TOPK by immunoblotting.
Platinum-based combination chemotherapy (i.e. cisplatin) is recognized as the first-line standard of care in NSCLC. […]

[1] = human, in vivo; cited from earlier work
pAKT = experiment: Immunoblot of EGF-induced AKT phosphorylation in A549-Luc cells; format: cell-based, human; conditions: A549-Luc stably transfected with shRNA; serum deprived 24 hrs; EGF 20 ng/ml, 0-30 min
Protocol: FIG. 15 provides the results of knockdown of TOPK decreasing EGF-induced AKT phosphorylation in A549-Luc cells. shNC, shTOPK-3 (SEQ ID NO: 3), and shTOPK-4 (SEQ ID NO: 4) stably transfected A549-Luc cells were serum deprived for 24 hrs. EGF (20 ng/ml) was added to stimulate cells for 0˜30 min as indicated. Then, cells were harvested for detecting the expression of pAKT, AKT and TOPK by immunoblotting.
as §1

| Compound | increase in cell migration stimulated by ectopic expression of TOPK (CL1-0 cells) | cisplatin-induced γ-H2AX after TOPK shRNA (phospho-H2AX (γ-H2AX)) | EGF-induced AKT phosphorylation (pAKT) | other results |
| --- | --- | --- | --- | --- |
| O=c1cc(N2CCOCC2)oc2c(-c3ccccc3)cccc12 [LY294002] |  |  |  | TOPK-induced reduction of PTEN (PTEN): no effect |
| C[S+]([O-])c1ccc(-c2nc(-c3ccncc3)c(-c3ccc(F)cc3)[nH]2)cc1 (stereo not shown) [SB203580] | inhibited to a smaller extent |  |  |  |
| N#CC(=C(/N)Sc1ccccc1N)/C(C#N)=C(\N)Sc1ccccc1N [U0126] | inhibited to a smaller extent |  |  |  |
| N.N.[Cl][Pt][Cl] [cisplatin] |  |  |  | cell death induced by cisplatin (CL152 cells): ~90%; time of peak of cisplatin-induced γ-H2AX (phospho-H2AX (γ-H2AX); A549 control cells): 12 h; concentration found in the serum of cisplatin-treated patients [1]: 35 µM |
| shTOPK-3: shRNA having a sequence as set forth in SEQ ID NO:3 (TGACCCTGAGGCTTGTTACAT; shRNA, further chemistry not given here) |  | significantly decreasing | decreasing |  |
| shTOPK-4: shRNA having a sequence as set forth in SEQ ID NO:4 (TGTGGGAAATGATGACTTTAT; shRNA, further chemistry not given here) |  | significantly decreasing | decreasing |  |
